Laboratory results taken from patent publication US20090226500A1, “SUTURES AND ANTI-SCARRING AGENTS” (Angiotech Pharmaceuticals, Inc, priority 2006, published 2009).
Read-outs that look alike come from different tables or passages of the source.

Columns and labels:
[1] = test system: MCP-1 production by THP-1 cells; assay: MCP-1 production by macrophages; type: cell-based, human; details: read-out: IC50 MCP-1 production
Description: (§1) The human macrophage cell line, THP-1 was plated in a 12 well plate such that each well contains 1×10^6 cells in 2 ml of media containing 10% FCS. Opsonized zymosan was prepared by resuspending 20 mg of zymosan A in 2 ml of ddH2O and homogenizing until a uniform suspension was obtained. Homogenized zymosan was pelleted at 250 g and resuspended in 4 ml of human serum for a final concentration of 5 mg/ml and incubated in a 37° C. water bath for 20 minutes to enable opsonization. Geldanamycin was prepared in DMSO at a concentration of 10^−2 M and serially diluted 10-fold to give a range of stock concentrations (10^−8 M to 10^−2 M).
THP-1 cells were stimulated to produce MCP-1 by the addition of 1 mg/ml opsonized zymosan. […] was added to THP-1 cells by directly adding DMSO stock solutions, prepared earlier, at a 1/1000 dilution, to each well. Each drug concentration was tested in triplicate wells. Plates were incubated at 37° C. for 24 hours.
After a 24-hour stimulation, supernatants were collected to quantify MCP-1 production. MCP-1 concentrations in the supernatants were determined by ELISA using recombinant human MCP-1 to obtain a standard curve. A 96-well MaxiSorb plate was coated with 100 μL of anti-human MCP-1 Capture Antibody diluted in Coating Buffer (0.1M sodium carbonate pH 9.5) overnight at 4° C. The dilution of Capture Antibody used was lot-specific and was determined empirically. Capture antibody was then aspirated and the plate washed 3 times with Wash Buffer (PBS, 0.05% TWEEN-20). Plates were blocked for 1 hour at room temperature with 200 μL/well of Assay Diluent (PBS, 10% FCS pH 7.0). After blocking, plates were washed 3 times with Wash Buffer. […] Sample supernatants and standards were assayed in triplicate and were incubated at room temperature for 2 hours after addition to the plate coated with Capture Antibody. The plates were washed 5 times and incubated with 100 μL of Working Detector (biotinylated anti-human MCP-1 detection antibody+avidin-HRP) for 1 hour at room temperature. Following this incubation, the plates were washed 7 times and 100 μL of Substrate Solution (tetramethylbenzidine, H2O2) was added to plates and incubated for 30 minutes at room temperature. […] Mean absorbance was determined from triplicate data readings and the mean background was subtracted. MCP-1 concentration values were obtained from the standard curve.

[2] = test system: TNFα production by THP-1 cells; assay: TNF-alpha production by macrophages; type: cell-based, human; details: read-out: IC50 TNFα production
Description: as §1, with “12-well” for “12 well”, “opsonization.” for “opsonization. Geldanamycin was prepared in DMSO at a concentration of 10^−2 M and serially diluted 10-fold to give a range of stock concentrations (10^−8 M to 10^−2 M).”
THP-1 cells were stimulated to produce TNFα by the addition of 1 mg/ml opsonized zymosan. […] Each drug concentration was tested in triplicate wells. Plates were incubated at 37° C. for 24 hours.
After a 24-hour stimulation, supernatants were collected to quantify TNFα production. TNFα concentrations in the supernatants were determined by ELISA using recombinant human TNFα to obtain a standard curve A 96-well MaxiSorb plate was coated with 100 μL of anti-human TNFα Capture Antibody diluted in Coating Buffer (0.1M sodium carbonate pH 9 5) overnight at 4° C. The dilution of Capture Antibody used was lot-specific and was determined empirically. Capture antibody was then aspirated and the plate washed 3 times with Wash Buffer (PBS, 0.05% TWEEN-20) Plates were blocked for 1 hour at room temperature with 200 μL/well of Assay Diluent (PBS, 10% FCS pH 7.0). After blocking, plates were washed 3 times with Wash Buffer. […] Sample supernatants and standards were assayed in triplicate and were incubated at room temperature for 2 hours after addition to the plate coated with Capture Antibody. The plates were washed 5 times and incubated with 100 μL of Working Detector (biotinylated anti-human TNFα detection antibody+avidin-HRP) for 1 hour at room temperature. Following this incubation, the plates were washed 7 times and 100 μL of Substrate Solution (tetramethylbenzidine, H2O2) was added to plates and incubated for 30 minutes at room temperature. […] Mean absorbance was determined from triplicate data readings and the mean background was subtracted. TNFα concentration values were obtained from the standard curve.

human fibroblasts = assay: Cell proliferation of fibroblasts; type: cell-based; details: Fibroblast, 72 hours, CYQUANT, read-out: IC50 cell proliferation of fibroblasts
Description: Fibroblasts at 70-90% confluency are trypsinized, replated at 600 cells/well in media in 96-well plates and allowed to attachment overnight. […] Each drug concentration is tested in triplicate wells. Plates containing fibroblasts and drug substance are incubated at 37° C. for 72 hours.
To terminate the assay, the media is removed by gentle aspiration. A 1/400 dilution of CYQUANT 400×GR™ dye indicator (Molecular Probes; Eugene, Oreg.) is added to 1× Cell Lysis buffer, and 200 μL of the mixture is added to the wells of the plate. Plates are incubated at room temperature, protected from light for 3-5 minutes.

Smooth muscle cells = assay: Proliferation of smooth muscle cells; type: cell-based; details: read-out: IC50 proliferation of smooth muscle cells
Description: Smooth muscle cells at 70-90% confluency were trypsinized, replated at 600 cells/well in media in 96-well plates and allowed to attachment overnight. Paclitaxel was prepared in DMSO at a concentration of 10^−2 M and diluted 10-fold to give a range of stock concentrations (10^−8 M to 10^−2 M). […] Each drug concentration was tested in triplicate wells. Plates containing cells and paclitaxel were incubated at 37° C. for 72 hours.
To terminate the assay, the media was removed by gentle aspiration A 1/400 dilution of CYQUANT 400×GR dye indicator (Molecular Probes; Eugene, Oreg.) was added to 1× Cell Lysis buffer, and 200 μL of the mixture was added to the wells of the plate. Plates were incubated at room temperature, protected from light for 3-5 minutes.

[3] = THP-1 cells stimulated with opsonized zymosan, 24 hours
[4] = Homo sapiens, THP-1 cells stimulated with opsonized zymosan, 24 hours

| Structure (SMILES) | IC50 [1, 3] [nM] | IC50 (Smooth muscle cells; 72 hours, CYQUANT) [nM] | also measured |
| --- | --- | --- | --- |
| C=C1/C(=C\C=C2/CCC[C@]3(C)[C@@H]([C@H](C)CCCC(C)(C)O)CC[C@@H]23)C[C@@H](O)C[C@@H]1O [1-α-25 dihydroxy vitamin D3] | 1 |  |  |
| CCCCC/C=C/C=C1/C(=O)C=C[C@@H]1C/C=C\CCCC(=O)O [15-deoxy prostaglandin J2, 15-Deoxy-D12,14-prostaglandin J2] | 724 |  | IC50 [2, 3]: 742 nM |
| CC1(C)CN[Se]c2ccccc21 [BXT-51072] | 683 |  |  |
| Cc1ccc(S(=O)(=O)/C=C/C#N)cc1 [Bay 11-7082] |  |  | IC50 [2, 3]: 810 nM |
| O=C(O)CCCCN(CCc1ccccc1OCc1ccc(CCc2ccccc2)cc1)Cc1ccc(C(=O)O)cc1 [Bay 58-2667] | 216 |  |  |
| COc1c(C)c2c(c(O)c1C/C=C(\C)CCC(=O)OCCN1CCOCC1)C(=O)OC2 [Mycophenolate mofetil] |  | 463 | IC50 [2, 4]: 792 nM; IC50 (human fibroblasts): 600 to 1200 nM; IC50 [1, 4]: 217 nM |
| Fc1ccc(-c2nc3n(c2-c2ccncc2)CCS3)cc1 [SKF 86002] |  |  | IC50 [2, 4]: 831 nM |
| CN(C)CCCN1c2ccccc2Sc2ccc(Cl)cc21 [chlorpromazine] |  |  | IC50 [2, 4]: 6 nM; IC50 [1, 4]: 0.011 nM |
| COC1=C2C[C@@H](C)C[C@H](OC)[C@H](O)[C@@H](C)/C=C(\C)[C@H](OC(N)=O)[C@@H](OC)/C=C\C=C(/C)C(=O)NC(=CC1=O)C2=O [geldanamycin] |  | 5 | IC50 [2, 4]: 14 nM; IC50 (human fibroblasts): 0.1 to 10 nM |
| Nc1ccn([C@@H]2O[C@H](CO)[C@@H](O)C2(F)F)c(=O)n1 [gemcitabine] | 50 | 9 |  |
| COc1cc([C@@H]2c3cc4c(cc3[C@H](O)[C@H]3COC(=O)[C@H]23)OCO4)cc(OC)c1OC [podophyllotoxin] |  |  | IC50 ([2]; Homo sapiens, THP-1, 24 h): 75 nM; IC50 (human fibroblasts): 100 to 600 nM; IC50 ([1]; Homo sapiens, THP-1, 24 h): 28 nM; IC50 (Smooth muscle cells; 72 h): 21 nM |
| COc1ccc(C[C@H](N)C(=O)N[C@H]2[C@@H](O)[C@H](n3cnc4c(N(C)C)ncnc43)O[C@@H]2CO)cc1 [puromycin] | 161 | 384 |  |
| CC[C@]1(O)C[C@@H]2CN(CCc3c([nH]c4ccccc34)[C@@](C(=O)OC)(c3cc4c(cc3OC)N(C)[C@H]3[C@@](O)(C(=O)OC)[C@H](OC(C)=O)[C@]5(CC)C=CCN6CC[C@]43[C@@H]65)C2)C1 [vinblastine] | 19 | 3 | IC50 [2, 3]: 65 nM |
| CC[C@]1(O)C[C@H]2CN(CCc3c([nH]c4ccccc34)[C@@](C(=O)OC)(c3cc4c(cc3OC)N(C=O)[C@H]3[C@@](O)(C(=O)OC)[C@H](OC(C)=O)[C@]5(CC)C=CCN6CC[C@]43[C@@H]65)C2)C1 [vincristine] | 16 | 9 |  |
| CCC1=C[C@@H]2CN(C1)Cc1c([nH]c3ccccc13)[C@@](C(=O)OC)(c1cc3c(cc1OC)N(C)[C@H]1[C@@](O)(C(=O)OC)[C@H](OC(C)=O)[C@]4(CC)C=CCN5CC[C@]31[C@@H]54)C2 [vinorelbine] | 69 | 15 | IC50 [2, 3]: 605 nM |
